# ChEMBL document CHEMBL4831503, “Design, synthesis, in vitro and in vivo anti-respiratory syncytial virus (RSV) activity of novel oxizine fused benzimidazole derivatives” (Eur J Med Chem, 2021)
# Calls of active or inactive are those of the source. No cut-off for these calls is given here.
# What was measured:
# [1] = Cytotoxicity against human HEp-2 cells assessed as reduction in cell viability measured after 60 hrs by MTT assay; format: cell-based
# [2] = Selectivity index, ratio of CC50 for human HEp-2 cells to EC50 for Respiratory syncytial virus infected in human HEp-2 cells; format: toxicity, cell-based; details: read-out: Selectivity Index
# [3] = test system: Respiratory syncytial virus; test: Antiviral activity against Respiratory syncytial virus infected in human HEp-2 cells incubated for 60 hrs by MTT assay; format: functional, organism-based; details: HEp-2, 60 h
# [4] = test system: Respiratory syncytial virus; test: Antiviral activity against RSV infected in BALB/c mouse assessed as downregulation of iNOS expression in lung tissue infected with RSV at 50 mg/kg/day measured after 2 to 6 days post infection by RT-PCR analysis; format: functional, organism-based; details: time 2-6 day
# [5] = test system: Respiratory syncytial virus; test: Inhibition of RSV induced apoptosis in human HEp-2 cells assessed as reduction in PARP cleavage measured after 48 hrs by Western blot analysis; format: functional, organism-based
# [6] = test system: Respiratory syncytial virus; test: Antiviral activity against RSV infected in BALB/c mouse assessed as downregulation of TLR3 expression in lung tissue infected with RSV at 50 mg/kg/day measured after 2 to 6 days post infection by RT-PCR analysis; format: functional, organism-based; details: time 2-6 day
# [7] = test system: Respiratory syncytial virus; test: Antiviral activity against RSV Long infected in BALB/c mouse assessed as improvement in lung congestion at 25 to 100 mg/kg/day observed on day 6 after infection by H and E staining based microscopic analysis; format: functional, organism-based; details: dose 25-100 mg/kg/day, time 6.0 day
# [8] = test system: Respiratory syncytial virus; test: Antiviral activity against RSV infected in human HEp-2 cells assessed as downregulation of NF-kappaB expression at 25 uM treated 48 hpi and measured after 48 hrs by Western blot analysis; format: functional, organism-based
# [9] = test system: Respiratory syncytial virus; test: Antiviral activity against RSV infected in BALB/c mouse assessed as downregulation of IRF3 expression in lung tissue infected with RSV at 50 mg/kg/day measured after 2 to 4 days post infection by RT-PCR analysis; format: functional, organism-based; details: time 2-4 day
# [10] = test system: Respiratory syncytial virus; test: Antiviral activity against RSV infected in BALB/c mouse assessed as inhibition of viral replication by measuring RSV-M gene expression in lung after 2 to 6 days post infection by RT-PCR analysis; format: functional, organism-based; details: time 2-6 day
# [11] = test system: Respiratory syncytial virus; test: Inhibition of RSV induced apoptosis in human HEp-2 cells assessed as early apoptotic cells at 25 uM measured after 60 hrs by Annexin V-FITC/PI staining based flow cytometry analysis (reference value: 10.3%); format: functional; parameters: scale not given: the % may be the effect or the level left
# [12] = test system: Respiratory syncytial virus; test: Inhibition of RSV induced apoptosis in human HEp-2 cells assessed as late apoptotic cells at 25 uM measured after 60 hrs by Annexin V-FITC/PI staining based flow cytometry analysis (reference value: 20.2%); format: functional; parameters: scale not given: the % may be the effect or the level left
# [13] = test system: Respiratory syncytial virus; test: Antiviral activity against RSV Long infected in BALB/c mouse assessed as inhibition of alveolar infiltrates accumulation at 50 mg/kg/day observed on day 6 after infection by H and E staining based microscopic analysis; format: functional, organism-based; details: time 6.0 day
# [14] = test system: Respiratory syncytial virus; test: Antiviral activity against RSV infected in human HEp-2 cells assessed as downregulation of RIG-1 expression at 25 uM treated 48 hpi and measured after 48 hrs by Western blot analysis; format: functional, organism-based
# [15] = test system: Respiratory syncytial virus; test: Antiviral activity against RSV infected in BALB/c mouse assessed as downregulation of IL-10 expression in lung tissue infected with RSV at 50 mg/kg/day measured after 2 to 6 days post infection by RT-PCR analysis; format: functional, organism-based; details: time 2-6 day
# [16] = Inhibition of RSV induced ROS production in human HEp-2 cells assessed as reduction in accumulation of ROS-positive cells at 25 uM measured after 36 hrs by DCHF-DA staining based flow cytometry analysis (reference value: 82.2%); format: functional, Respiratory syncytial virus; parameters: scale not given: the % may be the effect or the level left
# [17] = test system: Respiratory syncytial virus; test: Antiviral activity against RSV Long infected in BALB/c mouse assessed as reduction in lung tissue damage by measuring lung index at 50 mg/kg/day measured after 4 to 6 days of virus infection; format: functional, organism-based; details: time 4-6 day
# [18] = test system: Respiratory syncytial virus; test: Antiviral activity against RSV infected in BALB/c mouse assessed as downregulation of IL-8 expression in lung tissue infected with RSV at 50 mg/kg/day measured after 2 to 6 days post infection by RT-PCR analysis; format: functional, organism-based; details: time 2-6 day
# [19] = test system: Respiratory syncytial virus; test: Inhibition of RSV induced apoptosis in human HEp-2 cells assessed as reduction in cleaved caspase-9 expression measured after 48 hrs by Western blot analysis; format: functional, organism-based
# [20] = Toxicity in BALB/c mouse infected with RSV-Long assessed as body weight loss at 50 mg/kg/day administered via gastric gavage once daily for 6 days; format: organism-based; details: in vivo, po, 144 h, time 6 day
# [21] = test system: Respiratory syncytial virus; test: Inhibition of RSV induced apoptosis in human HEp-2 cells assessed as reduction in cleaved caspase-3 expression measured after 60 hrs by Western blot analysis; format: functional, organism-based
# [22] = test system: Respiratory syncytial virus; test: Antiviral activity against RSV infected in BALB/c mouse assessed as downregulation of IL-6 expression in lung tissue infected with RSV at 50 mg/kg/day measured after 2 days post infection by RT-PCR analysis; format: functional, organism-based; details: time 2.0 day
# [23] = test system: Respiratory syncytial virus; test: Inhibition of RSV induced apoptosis in human HEp-2 cells assessed as reduction in cleaved caspase-7 expression measured after 48 hrs by Western blot analysis; format: functional, organism-based
# [24] = test system: Respiratory syncytial virus; test: Antiviral activity against RSV infected in BALB/c mouse assessed as downregulation of TNF-alpha expression in lung tissue infected with RSV at 50 mg/kg/day measured after 2 to 6 days post infection by RT-PCR analysis; format: functional, organism-based; details: time 2-6 day
# [25] = test system: Respiratory syncytial virus; test: Antiviral activity against RSV infected in BALB/c mouse assessed as downregulation of RIG-1 expression in lung tissue infected with RSV at 50 mg/kg/day measured after 2 days post infection by RT-PCR analysis; format: functional, organism-based; details: time 2.0 day
smiles,measurement,setting,value
Cc1c(Br)cc2c(nc3n2[C@H]2OC[C@@H](OS(C)(=O)=O)[C@H]2OC3)c1Br,CC50 at 60 h,[1],15.6 µM
COc1c(Br)cc2c(nc3n2[C@H]2OC[C@@H](O)[C@H]2OC3)c1Br,CC50 at 60 h,[1],259 µM
Cc1ccc(S(=O)(=O)O[C@@H]2CO[C@H]3[C@@H]2OCc2nc4c(Br)c(C)c(Br)cc4n23)cc1,CC50 at 60 h,[1],8.94 µM
same,selectivity ratio,[2],5.68
same,EC50,[3],1.57 µM
OC[C@@H](O)[C@@H]1Cn2c(nc3ccccc32)CO1,CC50 at 60 h,[1],> 800 µM
COc1c(Cl)cc2c(nc3n2[C@H]2OC[C@@H](O)[C@H]2OC3)c1Cl,CC50 at 60 h,[1],411 µM
Cc1cc2nc3n(c2cc1C)[C@H]1OC[C@@H](O)[C@H]1OC3,CC50 at 60 h,[1],492 µM
Cc1ccc(S(=O)(=O)O[C@@H]2CO[C@H]3[C@@H]2OCc2nc4cc(Br)c(Br)cc4n23)cc1,CC50 at 60 h,[1],87.5 µM
same,selectivity ratio,[2],1.35
same,EC50,[3],64.7 µM
Cc1c(Br)cc2c(nc3n2[C@H]2OC[C@H](N=[N+]=[N-])[C@H]2OC3)c1Br,CC50 at 60 h,[1],33.1 µM
same,selectivity ratio,[2],2.54
same,EC50,[3],13 µM
[N-]=[N+]=N[C@H]1CO[C@H]2[C@@H]1OCc1nc3cc(Br)c(Br)cc3n12,CC50 at 60 h,[1],77.4 µM
O[C@@H]1CO[C@H]2[C@@H]1OCc1nc3cc(Br)c(Br)cc3n12,CC50 at 60 h,[1],181 µM
same,selectivity ratio,[2],5.67
same,EC50,[3],31.9 µM
NC(=O)c1ncn([C@@H]2O[C@H](CO)[C@@H](O)[C@H]2O)n1 [RIBAVIRIN],Activity,[4],Active
same,inhibition,[5],Active
same,Activity,[6],Active
same,Activity,[7],Active
same,CC50 at 60 h,[1],418 µM
same,Activity,[8],Active
same,Activity,[9],Active
same,Activity,[10],Active
same,Activity,[11],0.3%
same,Activity,[12],7.6%
same,Activity,[13],Active
same,Activity,[14],Active
same,Activity,[15],Active
same,Activity,[16],62.7%
same,Activity,[17],Active
same,Activity,[18],Active
same,inhibition,[19],Active
same,Activity,[20],Toxic
same,inhibition,[21],Active
same,selectivity ratio,[2],22.6
same,Activity,[22],Active
same,inhibition,[23],Active
same,Activity,[24],Active
same,Activity,[25],inactive
same,EC50,[3],18.5 µM
Cc1c(Br)cc2c(nc3n2[C@H]2OC[C@@H](OCc4ccccc4)[C@H]2OC3)c1Br,CC50 at 60 h,[1],25.6 µM
COc1ccc2c(nc3n2[C@H]2OC[C@@H](O)[C@H]2OC3)c1N,CC50 at 60 h,[1],109 µM
same,selectivity ratio,[2],9.66
same,EC50,[3],11.3 µM
Cc1cc2nc3n(c2cc1C)C[C@@H]([C@H](O)CO)OC3,CC50 at 60 h,[1],574 µM
COc1ccc2c(nc3n2[C@H]2OC[C@@H](O)[C@H]2OC3)c1[N+](=O)[O-],CC50 at 60 h,[1],468 µM
Cc1ccc(S(=O)(=O)O[C@@H]2CO[C@H]3[C@@H]2OCc2nc4cc(Br)c(C)c(Br)c4n23)cc1,CC50 at 60 h,[1],88.6 µM
same,selectivity ratio,[2],10.7
same,EC50,[3],8.28 µM
O[C@@H]1CO[C@H]2[C@@H]1OCc1nc3ccccc3n12,CC50 at 60 h,[1],564 µM
COc1ccc2c(c1)nc1n2C[C@@H]([C@H](O)CO)OC1,CC50 at 60 h,[1],366 µM
O[C@@H]1CO[C@H]2[C@@H]1OCc1nc3cc(Cl)c(Cl)cc3n12,CC50 at 60 h,[1],238 µM
Cc1c(Br)cc2nc3n(c2c1Br)[C@H]1OC[C@@H](OS(C)(=O)=O)[C@H]1OC3,CC50 at 60 h,[1],23.7 µM
same,selectivity ratio,[2],3.96
same,EC50,[3],5.98 µM
O[C@@H]1CO[C@H]2[C@@H]1OCc1nc3cc(F)c(F)cc3n12,CC50 at 60 h,[1],512 µM
same,EC50,[3],> 400 µM
OC[C@@H](O)[C@@H]1Cn2c(nc3cc(F)c(F)cc32)CO1,CC50 at 60 h,[1],653 µM
same,selectivity ratio,[2],10
same,EC50,[3],65.2 µM
COc1ccc2c(c1)nc1n2[C@H]2OC[C@@H](O)[C@H]2OC1,CC50 at 60 h,[1],> 800 µM
O[C@@H]1CO[C@H]2[C@@H]1OCc1nc3cc(Br)cc(Cl)c3n12,CC50 at 60 h,[1],> 800 µM
same,EC50,[3],86.2 µM
Cc1c(Br)cc2c(nc3n2[C@H]2OC[C@@H](O)[C@H]2OC3)c1Br,CC50 at 60 h,[1],34.3 µM
CS(=O)(=O)O[C@@H]1CO[C@H]2[C@@H]1OCc1nc3cc(Br)c(Br)cc3n12,CC50 at 60 h,[1],99.5 µM
same,selectivity ratio,[2],1.13
same,EC50,[3],87.9 µM
Cc1c(Br)cc2nc3n(c2c1Br)[C@H]1OC[C@@H](OCc2ccccc2)[C@H]1OC3,CC50 at 60 h,[1],115 µM
same,Activity,[15],Active
same,selectivity ratio,[2],2.59
same,EC50,[3],44.5 µM
Cc1c(Br)cc2nc3n(c2c1Br)[C@H]1OC[C@H](N=[N+]=[N-])[C@H]1OC3,CC50 at 60 h,[1],21.4 µM
